# Where two headings read alike, the source gives them in different places.
# Experiments:
# HCV genotype 1b replicon = test: HCV replicon assay (Zluc luciferase); format: cell-based; details: Zluc cells, 72 hours, read-out: HCV Replicon EC50
# Procedure: Huh-7-derived cell line (Zluc) that harbors an HCV genotype 1b replicon and a luciferase reporter gene was grown in Dulbecco's Modified Eagle Medium (DMEM) supplemented with 10% fetal bovine serum, 2 mM GlutaMAX, 1% MEM nonessential amino acids, 100 IU/mL penicillin, 100 μg/mL streptomycin, and 0.5 mg/mL Geneticin® (G418). For dose response testing the cells were seeded in 96-well plates at 7.5×10^3 cells per well in a volume of 50 μL, and incubated at 37° C./5% CO2. Drug solutions were made up freshly in Huh-7 media as 2× stocks. Ten additional 5-fold dilutions were prepared from these stocks in DMEM without G418. At least three hours after Zluc cells were seeded, drug treatment was initiated by adding 50 μL of drug dilutions to the plates in duplicate. Final concentrations of drug ranged from 100 μM to […]. Cells were then incubated at 37° C./5% CO2. Alternatively, compounds were tested at two concentrations (1 μM and 10 μM). […] For this, media was removed from the plates via gentle tapping. Fifty microliters of ONE-glo luciferase assay reagent was added to each well. The plates were shaken gently for 3 min at room temperature and luminescence was measured on a Victor^3 V 1420 multilabel counter (Perkin Elmer) with a 1 second read time using a 700 nm cut-off filter. The EC50 values were calculated from dose response curves from the resulting best-fit equations determined by Microsoft Excel and XLfit 4.1 software. When screening at two fixed concentrations, the results were expressed as % inhibition at 1 μM and 10 μM.
# [1] = Plasma nucleoside pharmacokinetics after single oral dose in CD-1 mice; format: in vivo; details: single oral dose 10 mg/kg in PEG 200;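 as to Ms Plasma nucleoside AUC: pmol·h/mL plasma normalized to a 1 µmol/kg dose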
# Procedure: Plasma samples were analyzed for nucleoside by LC-MS/MS. The internal standard (IS) was either 2′-MeG-D3 or tiapride. For protein precipitation and extraction, each plasma sample (50 μL) was treated with 500 μL of 0.2% formic acid in acetonitrile and 20 μL of the internal standard working solution. After vortexing and centrifugation, 500 μL of the sample extracts were transferred to a new plate, dried under N2 at ˜28° C. and reconstituted with 75 μL of 0.2% FA in water. The extracts were chromatographed on an Aquasil C18 column using a gradient system of 0.2% formic acid in water and acetonitrile. The analytes were detected and quantified by tandem mass spectrometry in positive ion mode on an MDS Sciex API5000 equipped with a Turbo Ionspray® interface. The calibration range was 0.500 (LLOQ) to 200 ng/mL in mouse plasma.
# [2] = Liver triphosphate pharmacokinetics after single oral dose in CD-1 mice; format: in vivo; set-up: key: + ≤ 15; 15 < ++ ≤ 50; 50 < +++ ≤ 100; 100 < ++++; BLQ = below limit of quantitation; details: single oral dose 10 mg/kg in PEG 200;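 as to Ms Liver TP AUC: pmol·h/g liver normalized to a 1 µmol/kg dose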;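 as to Ms Liver TP Cmax: pmol/g liver normalized to a 1 µmol/kg dose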
# Procedure: Internal standard solution was added to the homogenate followed by neutralization with 20% ammonium hydroxide solution and addition of 500 μL 1% formic acid. The tissue samples were extracted by weak anion exchange solid phase extraction (SPE). Post extraction, the eluates were evaporated under nitrogen, followed by reconstitution before injection onto the LC-MS/MS system.
# in vitro = details: human
# [3] = Stability in liver microsomes; format: in vitro ADME; details: human liver microsomes 1.0 mg/mL, 10 μM, NADPH, 60 min
# Procedure: (§1) Stability of test compounds were determined in human liver and intestinal microsomes in duplicate for each matrix. Pooled liver and intestinal microsomal proteins (1.0 mg/mL), suspended in incubation buffer (100 mM potassium phosphate, pH 7.4, 5 mM MgCl2, and 0.1 mM EDTA), were preincubated for 5 min at 37° C. with 10 μM of a test compound from a 10 mM stock solution in DMSO (final DMSO concentration was 0.1%); the reaction was initiated by the addition of NADPH (3 mM final concentration). At specific times (0 and 60 min), 0.1 mL samples were taken and the reaction terminated by the addition of 4 volumes of stop solution (acetonitrile with 500 ng/mL carbutamide as an internal standard). The samples were vortexed for 30 sec and then centrifuged at 16000×g for 10 min. 100 μL of supernatants were transferred to 96 deep-well plates preloaded with 100 μL distilled water and analyzed after mixing by LC-MS/MS. The MS peak area ratio of the test compound versus the internal standard was calculated and percent unchanged test compound over 60 minutes was calculated using this ratio.
# [4] = Stability in intestinal microsomes; format: in vitro ADME; details: human intestinal microsomes 1.0 mg/mL, 10 μM, NADPH, 60 min
# Procedure: as §1
# Huh-7 cells = test: Release of active metabolite in Huh-7 cells; format: in vitro ADME
# Procedure: Huh-7 cells were plated in 1 mL culture medium (DMEM, containing glucose, L-glutamine and sodium pyruvate, 10% FBS, 100 IU/mL penicillin, 100 μg/mL streptomycin, 2 mM GlutaMAX, 1% MEM non-essential amino acids) at the concentration 0.8, 0.4 and 0.2 million cells per well on 6 well plates for 24, 48 and 72 hr treatment, respectively. Plated cells were incubated overnight at 37° C. in an incubator.
# The following morning test compound was diluted to 20 μM from a stock solution in DMSO in fresh culture medium pre-warmed to 37° C. and 1 mL of the solution/well was added to cells. A final medium volume per well was 2.0 mL, test compound concentration in well was 10 μM and final DMSO concentration was 0.1%.
# After 24, 48 or 72 hr, the medium was carefully removed and cell monolayers were washed twice with 2 mL ice-cold PBS per well. Following the last wash, all PBS was carefully removed and 1.0 mL of extraction solution (ice-cold 70% methanol) added. The plate was tightly covered with Parafilm, plastic plate cover and Parafilm again and an intracellular content was extracted at −20° C. for 24 hr.
# After 24 hr the extracts were transferred into polypropylene microfuge tubes and dry on a refrigerated centrivap concentrator. Dry residues were reconstituted in 250 μL of HPLC-grade water and centrifuged at 16,000×g for 10 min. Aliquots (100 μL each) of the supernatants were transferred into a 96 well plate and internal standard (4 ng/mL final concentration) was added as the internal standard (IS) for LC-MS/MS analysis.
# fresh mouse hepatocytes = test: Release of active metabolite in fresh mouse hepatocytes; format: in vitro ADME; details: 10 μM
# Procedure: Plates of fresh human and mouse hepatocytes were obtained on ice. The medium was removed and replaced with hepatocyte culture medium (William's E supplemented with penicillin-streptomycin, 1% L-glutamine, 1% insulin-transferrin-selenium and 0.1 μM Dexamethasone (Invitrogen) or with Invitro GRO HI medium complemented with Torpedo antibiotics (Celsis)). Cells were left overnight in an incubator at 37° C. to acclimatize to culture and the medium.
# Hepatocyte incubations were conducted at a final volume of 0.5 mL hepatocyte culture medium/well (0.8 million cells/well for human and 0.5 million cells/well for mouse; 12 well plate no overlay, collagen coat). Culture medium from overnight incubation of cells was removed and replaced with fresh medium, pre-warmed to 37° C., containing 10 μM of test compound from a stock solution in DMSO (final DMSO concentration was 0.1%). At each specific time point, incubation medium was removed and cell monolayers were carefully washed two times with ice-cold PBS. Following the last wash, all PBS was carefully removed and 1.0 mL of extraction solution (ice-cold 70% methanol/30% water) added. Cells were scraped off and suspended in the extraction solution, transferred to 2 mL polypropylene microfuge tubes and intracellular contents extracted overnight at −20° C.
# After the overnight treatment the cellular extracts were prepared by centrifugation at 16,000×g for 10 min to remove cellular debris. The remaining sample was then dried using a refrigerated centrivap concentrator. Dry extracts were reconstituted in 1000 μL of HPLC-grade water and centrifuged at 16,000×g for 10 min. Aliquots (100 μL each) of the supernatant were transferred into a 96 well plate and internal standard (4 ng/mL final concentration) was added as the internal standard (IS) for LC-MS/MS analysis.
# The incubation time points were 6, 24 and 48 hours for human hepatocytes and 1, 4, 8, 12 and 24 hours for mouse hepatocytes.
Compound,"EC50 (HCV genotype 1b replicon; Hepatitis C virus, 72 h)",Ms Plasma nucleoside AUC [1],Ms Plasma nucleoside Cmax [1],Ms Liver TP AUC [2],Ms Liver TP Cmax [2],CC50 (in vitro),EC50 (HCV genotype 1b replicon),HLM (1 hr) stability (percent remaining) [3],HIM (1 hr) stability (percent remaining) [4],Huh-7 TP AUC (Huh-7 cells; 10 μM),Huh-7 TP Cmax (Huh-7 cells; 10 μM test compound),"Huh-7 TP (24 hr) (Huh-7 cells; 10 μM, 24 hr)","Huh-7 TP (48 hr) (Huh-7 cells; 10 μM, 48 hr)","Huh-7 TP (72 hr) (Huh-7 cells; 10 μM, 72 hr)",MsH AUC (fresh mouse hepatocytes),MsH Cmax (fresh mouse hepatocytes)
"CC(C)OP1(=O)OC[C@H]2O[C@@H](n3ccc(=O)[nH]c3=O)[C@](C)(Cl)[C@@H]2O1 (single isomer, unassigned) [Compound 37 Diastereomer 1]",1 to 10 µM,+++ (500 < +++ ≤ 1500),+++ (50 < +++ ≤ 100),++++ (1500 < ++++),++++ (100 < ++++),> 50 µM,–,–,–,–,–,–,–,–,–,–
"CC(C)OC(=O)[C@H](C)NP(=O)(OC[C@H]1O[C@@H](n2ccc(=O)[nH]c2=O)[C@](C)(Cl)[C@@H]1O)Oc1ccccc1 (single isomer, unassigned) [Compound 40ii Diastereomer 1]",–,+++ (500 < +++ ≤ 1500),+++ (50 < +++ ≤ 100),+++ (500 < +++ ≤ 1500),+++ (50 < +++ ≤ 100),> 50 µM,1 to 10 µM,+ (+ ≤ 25%),+++ (50% < +++ ≤ 75%),++++ (1500 < ++++),++++ (100 < ++++),++ (15 < ++ ≤ 50),+++ (50 < +++ ≤ 100),++++ (100 < ++++),–,–
"CC(C)(C)C(=O)SCCOP1(=O)OC[C@H]2O[C@@H](n3ccc(N)nc3=O)[C@](C)(Cl)[C@@H]2O1 (single isomer, unassigned) [Compound 61 Diastereomer 1]",< 0.25 µM,+ (+ ≤ 150),++++ (100 < ++++),+++ (500 < +++ ≤ 1500),+++ (50 < +++ ≤ 100),> 50 µM,–,–,–,–,–,–,–,–,–,–
"CCOC(=O)NCC(C)(C)C(=O)SCCOP1(=O)OC[C@H]2O[C@@H](n3ccc(=O)[nH]c3=O)[C@](C)(Cl)[C@@H]2O1 (single isomer, unassigned) [Compound 70 Single Diastereomer]",< 0.25 µM,++++ (1500 < ++++),++++ (100 < ++++),++++ (1500 < ++++),++++ (100 < ++++),> 50 µM,–,–,–,–,–,–,–,–,–,–
"CC(C)(C)C(=O)SCCOP1(=O)OC[C@H]2O[C@@H](n3ccc(=O)[nH]c3=O)[C@](C)(Cl)[C@@H]2O1 (single isomer, unassigned) [Compound 201 Single Diastereomer]",< 0.25 µM,+++ (500 < +++ ≤ 1500),+++ (50 < +++ ≤ 100),++++ (1500 < ++++),++++ (100 < ++++),> 50 µM,–,–,–,–,–,–,–,–,–,–
"CCCCOC(=O)[C@@H](C)NP(=O)(OC[C@H]1O[C@@H](n2ccc(=O)[nH]c2=O)[C@](C)(Cl)[C@@H]1O)Oc1ccccc1 (single isomer, unassigned) [Compound 202i Diastereomer 1]",–,++++ (1500 < ++++),++++ (100 < ++++),++++ (1500 < ++++),++++ (100 < ++++),> 50 µM,1 to 10 µM,–,–,–,–,–,–,–,–,–
"C[C@@H](NP(=O)(OC[C@H]1O[C@@H](n2ccc(=O)[nH]c2=O)[C@](C)(Cl)[C@@H]1O)Oc1ccccc1)C(=O)OCc1ccccc1 (single isomer, unassigned) [Compound 205i Diastereomer 1]",–,+++ (500 < +++ ≤ 1500),+++ (50 < +++ ≤ 100),++++ (1500 < ++++),++++ (100 < ++++),> 50 µM,1 to 10 µM,–,–,–,–,–,–,–,–,–
"CC(C)OC(=O)[C@@H](C)NP(=O)(OC[C@H]1O[C@@H](n2ccc(=O)[nH]c2=O)[C@](C)(Cl)[C@@H]1O)Oc1ccccc1 (single isomer, unassigned; diastereomer 2) [Compound 40i Diastereomer 2]",–,+++ (500 < +++ ≤ 1500),+++ (50 < +++ ≤ 100),++++ (1500 < ++++),++++ (100 < ++++),–,–,+++ (50% < +++ ≤ 75%),++++ (75% < ++++),–,–,–,–,–,+++ (500 < +++ ≤ 1500),+++ (50 < +++ ≤ 100)
"C[C@@]1(Cl)[C@H](O)[C@@H](CO)O[C@H]1n1ccc(=O)[nH]c1=O [Compound 301, 2′-C-Chloro-2′-C-methyluridine]",> 10 µM,+++ (500 < +++ ≤ 1500),+++ (50 < +++ ≤ 100),BLQ,BLQ,> 50 µM,–,–,–,–,–,–,–,–,–,–
